The text below walks through data of patent US9693560B2, “Microbicide substances” (LANXESS Deutschland GmbH, priority 2013, dated 2017).

Structures can show the parent of a compound that is named as a salt. Where two headings read alike, the source gives them in different places.

What all share (assay type): cell-based
Experiment [1] relates to Candida albicans. Description: MIC growth test (malt extract Bouillon). As for the experimental part: (§1) The growth of bacteria and fungi upon the addition of different biocidal mixtures was tested. The concentration above which growth is no longer detected is given as the minimum inhibitory concentration (MIC). The precultivation of the bacteria which were used in the test was performed on tryptone soya agar. The precultivation of the fungi which were used in the test was performed on malt extract agar. The growth in the MIC tests was checked in tryptone soya broth (bacteria) or malt extract Bouillon (fungi). The organisms were incubated at 26° C. and a relative […] humidity of 70 to 80%. The bacteria were evaluated after 4 days, and the fungi were evaluated […] after 7 days.
(§2) The synergistic index (SI) was determined in accordance with the method described by Kull et al. (F. C. Kull et al., Applied Microbiology 9 (1961), 538-541).
(§3) The following equation applies here: SI=QA/Qa+QB/Qb

Experiment [2] concerns Bacillus subtilis. As to the kind of experiment: MIC growth test (tryptone soya broth). As for the experimental part:
as §1, §2, §3

In experiment [3] the test system is Enterococcus hirae. As to the kind of experiment: MIC growth test (tryptone soya broth). As for the experimental part:
as §1, §2, §3

Experiment [4] has as its system Alcaligenes faecalis. Description: MIC growth test (tryptone soya broth). As for the experimental part:
as §1, §2, §3

Experiment [5] relates to Corynebacterium ammoniagenes. As to the kind of experiment: MIC growth test (tryptone soya broth). As for the experimental part: as §1, §2, §3
Experiment [6] concerns Pseudomonas aeruginosa. Description: MIC growth test (tryptone soya broth). As for the experimental part:
as §1, §2, §3

Experiment [7] concerns Proteus hauseri. Description: MIC growth test (tryptone soya broth). As for the experimental part:
as §1, §2, §3

Experiment [8] concerns Staphylococcus aureus. As to the kind of experiment: MIC growth test (tryptone soya broth). As for the experimental part: as §1, §2, §3
Experiment [9] concerns Pseudomonas stutzeri. Description: MIC growth test (tryptone soya broth). As for the experimental part: as §1, §2, §3
The subject of experiment [10] is Enterobacter aerogenes. As to the kind of experiment: MIC growth test (tryptone soya broth). As for the experimental part:
as §1, §2, §3

The test system of experiment [11] is Citrobacter freundii. As to the kind of experiment: MIC growth test (tryptone soya broth). As for the experimental part: as §1, §2, §3
Experiment [12] deals with Alternaria alternata. Description: MIC growth test (malt extract Bouillon). As for the experimental part:
as §1, §2, §3

Experiment [13] deals with Penicillium pinophilum. As to the kind of experiment: MIC growth test (malt extract Bouillon). The conditions noted are these: Talaromyces pinophilus. As for the experimental part: as §1, §2, §3
Experiment [14] concerns Paecilomyces formosus. As to the kind of experiment: MIC growth test (malt extract Bouillon). As for the experimental part:
as §1, §2, §3

Experiment [15] relates to Geotrichum candidum. As to the kind of experiment: MIC growth test (malt extract Bouillon). As for the experimental part:
as §1, §2, §3

Experiment [16] has as its system Stachybotrys chartarum. As to the kind of experiment: MIC growth test (malt extract Bouillon). As for the experimental part: as §1, §2, §3
For experiment [17], the system named is Escherichia coli. Description: MIC growth test (tryptone soya broth). As for the experimental part: as §1, §2, §3
Experiment [18] concerns Salmonella enterica. As to the kind of experiment: MIC growth test (tryptone soya broth). The note with it: Example 3, Table 11. As for the experimental part:
as §1, §2, §3

For the compound `O=c1[nH]sc2ccccc12` [BIT, 1,2-benzisothiazolin-3-one], the MIC is given as 25 ppm in [1] (Example 3, Table 17); 5 ppm in experiment [2] (Example 3, Table 11); 10 ppm in [3] (Example 3, Table 11); 2.5 ppm in experiment [4] (Example 3, Table 11); 37.5 ppm in experiment [5] (Example 3, Table 11); 50 ppm in [6] (Example 3, Table 11). In addition, the MIC was 7.5 ppm in experiment [7] (Example 3, Table 11); 5 ppm in experiment [8] (Example 3, Table 14); 10 ppm in experiment [9] (Pseudomonas stutzeri, Example 3, Table 11); 25 ppm in experiment [10] (Enterobacter aerogenes, Example 3, Table 11); 10 ppm in experiment [11] (Example 3, Table 11).
Turning to `CCCCCCCCCCCCNC(=N)N` [DGH, dodecylguanidine hydrochloride], the MIC came to 10 µg/mL in [12]; 25 µg/mL in experiment [1]; 7.5 µg/mL in experiment [13]; 5 µg/mL in experiment [14]; 10 µg/mL in experiment [15]; 7.5 µg/mL in experiment [16] (Example 2, Table 10). The MIC in [16] (Example 4, Table 23) worked out at 10 µg/mL; in [2] (Example 2, Table 7), 2.5 µg/mL; in experiment [2] (Example 3, Table 11) it was 3.75 µg/mL; in experiment [3] it was 2.5 µg/mL; in [4], 10 µg/mL; in experiment [4] (Example 3, Table 11), 10 ppm. In addition, the MIC in experiment [5] was 2.5 µg/mL; in experiment [6], 25 µg/mL; in [7], 10 µg/mL; in experiment [8], 1 µg/mL; in experiment [8] (Example 3, Table 14), 1 ppm; in [17], 5 µg/mL. Also, the MIC was determined as 5 µg/mL in experiment [9] (Stutzerimonas stutzeri); 10 µg/mL in experiment [10] (Klebsiella aerogenes); 10 µg/mL in experiment [18]; 5 µg/mL in [11]; 5 ppm in experiment [11] (Example 3, Table 11).
Take `Cn1sccc1=O` [MIT, 2-methyl-4-isothiazolin-3-one]: the MIC was 100 µg/mL in experiment [12]; 250 µg/mL in experiment [16] (Example 4, Table 23); 25 µg/mL in experiment [17].
